Results from patent publication US7009052B2, “Sulfonamide derivatives” (Warner Lambert Company LLC, priority 2003, dated 2006).

Molecular target: T1, androgen receptor (Homo sapiens, UniProt P10275)
T1 sequence (P10275 1-920 Q868H): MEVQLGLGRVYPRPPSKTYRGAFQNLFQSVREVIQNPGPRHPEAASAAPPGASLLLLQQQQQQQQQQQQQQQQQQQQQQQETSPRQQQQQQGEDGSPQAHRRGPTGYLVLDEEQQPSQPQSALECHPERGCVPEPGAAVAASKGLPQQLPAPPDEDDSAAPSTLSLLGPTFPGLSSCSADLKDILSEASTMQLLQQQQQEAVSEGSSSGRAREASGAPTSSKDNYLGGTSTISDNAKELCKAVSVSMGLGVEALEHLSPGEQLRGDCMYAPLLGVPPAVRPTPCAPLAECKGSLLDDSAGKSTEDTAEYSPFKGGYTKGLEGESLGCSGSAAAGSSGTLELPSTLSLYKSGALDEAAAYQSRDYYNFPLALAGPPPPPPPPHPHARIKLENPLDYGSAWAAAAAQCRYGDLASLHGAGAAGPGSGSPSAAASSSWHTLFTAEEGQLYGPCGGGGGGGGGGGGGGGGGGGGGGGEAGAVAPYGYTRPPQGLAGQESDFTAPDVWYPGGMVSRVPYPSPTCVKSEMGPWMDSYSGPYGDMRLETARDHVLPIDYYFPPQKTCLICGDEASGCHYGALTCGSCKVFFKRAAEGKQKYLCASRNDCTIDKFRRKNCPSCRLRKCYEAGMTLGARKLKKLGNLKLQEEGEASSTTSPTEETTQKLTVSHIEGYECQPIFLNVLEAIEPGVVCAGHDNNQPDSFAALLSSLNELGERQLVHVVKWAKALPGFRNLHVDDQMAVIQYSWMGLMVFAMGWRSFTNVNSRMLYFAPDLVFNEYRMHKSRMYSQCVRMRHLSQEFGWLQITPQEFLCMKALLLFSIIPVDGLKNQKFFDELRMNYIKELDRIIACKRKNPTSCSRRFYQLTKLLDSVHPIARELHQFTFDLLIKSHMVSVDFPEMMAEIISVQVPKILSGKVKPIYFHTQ
Assay: AR Antagonist Cell Assay (MMTV-luciferase reporter, DHT-induced)
Type: cell-based
Conditions: MDA-MB453-MMTV clone 54-19 cells, 100 pM DHT, 17 hr
Procedure, shortened: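 Stably transfected MDA-MB453 cells carrying an ARE-containing MMTV promoter–firefly luciferase reporter, pretreated 30 min with compound at 10 uM or 1 uM in 1% charcoal-treated serum medium. Then stimulated with 100 pM DHT for 17 hr at 37° C. and luminescence read; expressed as % inhibition of DHT-induced signal.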

SMILES	IC50 [nM]
O=c1cc(C(F)(F)F)c2cc(S(=O)(=O)NC3CCCCCC3)ccc2[nH]1 [Example 126, 2-Oxo-4-trifluoromethyl-1,2-dihydroquinoline-6-sulfonic acidcycloheptylamide]	2930
C#Cc1ccc(NS(=O)(=O)c2ccc3c(c2)c(C(F)(F)F)cc(=O)n3C)cc1 [Example 15, 1-Methyl-2-oxo-4-trifluoromethyl-1,2-dihydroquinoline-6-sulfonicacid (4-ethynylphenyl)amide]	1170
O=c1cc(C(F)(F)F)c2cc(S(=O)(=O)Nc3cccc(OC(F)F)c3)ccc2[nH]1 [Example 106, 2-Oxo-4-trifluoromethyl-1,2-dihydroquinoline-6-sulfonic acid(3-difluoromethoxyphenyl)amide]	260
CCOc1ccccc1CNS(=O)(=O)c1ccc2[nH]c(=O)cc(C(F)(F)F)c2c1 [Example 136, 2-Oxo-4-trifluoromethyl-1,2-dihydroquinoline-6-sulfonic acid2-ethoxybenzylamide]	580
O=c1cc(C(F)(F)F)c2cc(S(=O)(=O)NCCC3=CCCCC3)ccc2[nH]1 [Example 132, 2-Oxo-4-trifluoromethyl-1,2-dihydroquinoline-6-sulfonic acid(2-cyclohex-1-enylethyl)amide]	210
O=c1cc(C(F)(F)F)c2cc(S(=O)(=O)Nc3ccc4c(c3)OCO4)ccc2[nH]1 [Example 98, 2-Oxo-4-trifluoromethyl-1,2-dihydroquinoline-6-sulfonic acidbenzo[1,3]dioxol-5-ylamide]	> 10000
Cn1c(=O)cc(C(F)(F)F)c2cc(S(=O)(=O)NCc3ccccc3C(F)(F)F)ccc21 [Example 62, 1-Methyl-2-oxo-4-trifluoromethyl-1,2-dihydroquinoline-6-sulfonicacid 2-trifluoromethyl-benzylamide]	3920
Cc1ccccc1CNS(=O)(=O)c1ccc2c(c1)c(C(F)(F)F)cc(=O)n2C [Example 52, 1-Methyl-2-oxo-4-trifluoromethyl-1,2-dihydroquinoline-6-sulfonicacid 2-methylbenzylamide]	> 10000
CCN(Cc1ccccc1)S(=O)(=O)c1ccc2c(c1)c(C(F)(F)F)cc(=O)n2C [Example 10, 1-Methyl-2-oxo-4-trifluoromethyl-1,2-dihydroquinoline-6-sulfonicacid benzylethylamide]	6350
Cc1ccc(CNS(=O)(=O)c2ccc3c(c2)c(C(F)(F)F)cc(=O)n3C)cc1 [Example 51, 1-Methyl-2-oxo-4-trifluoromethyl-1,2-dihydroquinoline-6-sulfonicacid 4-methylbenzylamide]	> 10000
COc1ccccc1CCNS(=O)(=O)c1ccc2[nH]c(=O)cc(C(F)(F)F)c2c1 [Example 135, 2-Oxo-4-trifluoromethyl-1,2-dihydroquinoline-6-sulfonic acid[2-(2-methoxyphenyl)ethyl]amide]	170
O=c1cc(C(F)(F)F)c2cc(S(=O)(=O)NCc3ccccc3Br)ccc2[nH]1 [Example 156, 2-Oxo-4-trifluoromethyl-1,2-dihydroquinoline-6-sulfonic acid2-bromobenzylamide]	2160
Cn1c(=O)cc(C(F)(F)F)c2cc(S(=O)(=O)N(CCO)Cc3ccccc3)ccc21 [Example 6, 1-Methyl-2-oxo-4-trifluoromethyl-1,2-dihydroquinoline-6-sulfonicacid benzyl(2-hydroxyethyl)-amide]	> 10000
Cn1c(=O)cc(C(F)(F)F)c2cc(S(=O)(=O)NCCCCc3ccccc3)ccc21 [Example 57, 1-Methyl-2-oxo-4-trifluoromethyl-1,2-dihydroquinoline-6-sulfonicacid (4-phenylbutyl)amide]	> 10000
CC(O)c1cccc(NS(=O)(=O)c2ccc3[nH]c(=O)cc(C(F)(F)F)c3c2)c1 (stereo not drawn) [Example 100, 2-Oxo-4-trifluoromethyl-1,2-dihydroquinoline-6-sulfonic acid[3-(1-hydroxyethyl)phenyl]amide]	> 10000
Cn1c(=O)cc(C(F)(F)F)c2cc(S(=O)(=O)NCCC3=CCCCC3)ccc21 [Example 53, 1-Methyl-2-oxo-4-trifluoromethyl-1,2-dihydroquinoline-6-sulfonicacid (2-cyclohex-1-enylethyl)amide]	1840
O=c1cc(C(F)(F)F)c2cc(S(=O)(=O)Nc3ccccc3Sc3ccccc3)ccc2[nH]1 [Example 115, 2-Oxo-4-trifluoromethyl-1,2-dihydroquinoline-6-sulfonic acid(2-phenylsulfanylphenyl)amide]	8130

SMILES	IC50 [nM]
CC(C)c1ccc(NS(=O)(=O)c2ccc3[nH]c(=O)cc(C(F)(F)F)c3c2)cc1 [Example 97, 2-Oxo-4-trifluoromethyl-1,2-dihydroquinoline-6-sulfonic acid(4-isopropylphenyl)amide]	200
Cn1c(=O)cc(C(F)(F)F)c2cc(S(=O)(=O)NC3CCc4ccccc43)ccc21 (stereo not drawn) [Example 55, 1-Methyl-2-oxo-4-trifluoromethyl-1,2-dihydroquinoline-6-sulfonicacid indan-1-ylamide]	4310
CCc1ccc(NS(=O)(=O)c2ccc3[nH]c(=O)cc(C(F)(F)F)c3c2)cc1 [Example 89, 2-Oxo-4-trifluoromethyl-1,2-dihydroquinoline-6-sulfonic acid(4-ethylphenyl)amide]	360
CC(C)CCNS(=O)(=O)c1ccc2[nH]c(=O)cc(C(F)(F)F)c2c1 [Example 121, 2-Oxo-4-trifluoromethyl-1,2-dihydroquinoline-6-sulfonic acid(3-methylbutyl)amide]	280
COc1ccc(OC)c(NS(=O)(=O)c2ccc3[nH]c(=O)cc(C(F)(F)F)c3c2)c1 [Example 102, 2-Oxo-4-trifluoromethyl-1,2-dihydroquinoline-6-sulfonic acid(2,5-dimethoxyphenyl)amide]	7860
COc1ccccc1NS(=O)(=O)c1ccc2c(c1)c(C(F)(F)F)cc(=O)n2C [Example 20, 1-Methyl-2-oxo-4-trifluoromethyl-1,2-dihydroquinoline-6-sulfonicacid (2-methoxyphenyl)amide]	> 10000
Cc1cccc(NS(=O)(=O)c2ccc3[nH]c(=O)cc(C(F)(F)F)c3c2)c1 [Example 82, 2-Oxo-4-trifluoromethyl-1,2-dihydroquinoline-6-sulfonic acidm-tolylamide]	830
Cc1cccc(NS(=O)(=O)c2ccc3c(c2)c(C(F)(F)F)cc(=O)n3C)c1 [Example 13, 1-Methyl-2-oxo-4-trifluoromethyl-1,2-dihydroquinoline-6-sulfonicacid m-tolylamide]	760
COc1cccc(NS(=O)(=O)c2ccc3c(c2)c(C(F)(F)F)cc(=O)n3C)c1 [Example 48, 1-Methyl-2-oxo-4-trifluoromethyl-1,2-dihydroquinoline-6-sulfonicacid (3-methoxyphenyl)amide]	1130
CC(CNS(=O)(=O)c1ccc2c(c1)c(C(F)(F)F)cc(=O)n2C)c1ccccc1 (stereo not drawn) [Example 56, 1-Methyl-2-oxo-4-trifluoromethyl-1,2-dihydroquinoline-6-sulfonicacid (2-phenylpropyl)amide]	2730
O=c1cc(C(F)(F)F)c2cc(S(=O)(=O)Nc3ccc4c(c3)CCC4)ccc2[nH]1 [Example 96, 2-Oxo-4-trifluoromethyl-1,2-dihydroquinoline-6-sulfonic acidindan-5-ylamide]	140
Cn1c(=O)cc(C(F)(F)F)c2cc(S(=O)(=O)Nc3cccc(OC(F)F)c3)ccc21 [Example 38, 1-Methyl-2-oxo-4-trifluoromethyl-1,2-dihydroquinoline-6-sulfonicacid (3-difluoromethoxy-phenyl)amide]	5630
COCCN(CCOC)S(=O)(=O)c1ccc2[nH]c(=O)cc(C(F)(F)F)c2c1 [Example 80, 2-Oxo-4-trifluoromethyl-1,2-dihydroquinoline-6-sulfonic acidbis(2-methoxyethyl)amide]	> 10000
CC(C)(Cc1ccc(F)cc1)NS(=O)(=O)c1ccc2[nH]c(=O)cc(C(F)(F)F)c2c1 [Example 150, 2-Oxo-4-trifluoromethyl-1,2-dihydroquinoline-6-sulfonic acid[2-(4-fluorophenyl)-1,1-dimethylethyl]amide]	1830
Cn1c(=O)cc(C(F)(F)F)c2cc(S(=O)(=O)NCCC(C)(C)C)ccc21 [Example 49, 1-Methyl-2-oxo-4-trifluoromethyl-1,2-dihydroquinoline-6-sulfonicacid (3,3-dimethylbutyl)amide]	> 10000
O=c1cc(C(F)(F)F)c2cc(S(=O)(=O)NCc3cccnc3)ccc2o1 [Example 64, 2-Oxo-4-trifluoromethyl-2H-chromene-6-sulfonic acid(pyridin-3-ylmethyl)amide]	> 10000
